Two compounds from patent publication US20250326765A1, “PDE4B INHIBITOR AND USE THEREOF” (XIZANG HAISCO PHARMACEUTICAL CO., LTD., priority 2022, published 2025) can be followed below.

The structures appear in SMILES notation. pIC50: −log10 of the molar value.

Assay [1] addresses T1, PDE4B1 (Homo sapiens, UniProt Q07343).
T1 construct: purchased BPS 60041
The assay is described as follows: Effect of compounds on PDE4B1 activity (IMAP fluorescence polarization kit). Particulars: class symbols. Type of assay: biochemical. The procedure: The IMAP Reaction Buffer containing 0.1% BSA (5×) in the kit was diluted into a 1-fold reaction buffer containing 1 mM DTT. 0.12 nM PDE4B1 (BPS, Cat #60041) was added to the 1-fold reaction buffer to form a 2-fold enzyme solution. 10 μL of the 2-fold enzyme solution was added to wells of a 384-well reaction plate. For the negative control well, 10 μL of the 1-fold reaction buffer was used instead of the enzyme solution. Centrifugation at 1000 rpm for 1 minute and incubation at room temperature for 15 minutes were carried out. 0.2 uM FAM-labeled cAMP (FAM-cAMP, Molecular Device, Cat #R7506) was added to the 1-fold reaction buffer to form a 2-fold substrate solution. 10 μL of the 2-fold substrate solution was added to each well of the 384-well reaction plate. Centrifugation at 1000 rpm for 1 minute was carried out. A reaction was carried out at room temperature for 20 minutes. IMAP Progressive Binding Buffer A (5×), IMAP Progressive Binding Buffer B (5×), and IMAP Progressive Binding Reagent (provided by IMAP FP IPP Explorer Kit) were prepared into a reaction stop solution according to the instructions for use. 60 μL of an […] reaction stop solution was added to each well of the 384-well reaction plate to stop the reaction, and the reaction product was centrifuged at 1000 rpm for 1 minute. Incubation at room temperature in the dark for 60 minutes was carried out. The mP values (Ex480/Em535 (s), Em535 (p)) were read by a microplate reader (Envision).
FP was usually represented by mP value. mP value for FP measurement=1000*(S−G*P)/(S+G*P) • S: fluorescence intensity in parallel direction • P: fluorescence intensity in perpendicular direction • G: G factor=1
[formula] • mP(sample): mP of the test compound in a reaction well • mP(negative control): mP in the negative control well • mP(positive control): mP in the positive control well
According to the calculated inhibition rate at each concentration, the IC50 value of each compound was calculated by XLFit excel add-in version 5.4.0.8 software.
Y=Bottom+(Top−Bottom)/(1+(IC50/X)^HillSlope) Fitting formula: […]

Assay [2] deals with T2, PDE4D2 (Homo sapiens, UniProt Q08499).
T2 construct: purchased BPS Bioscience 60345
Description: Effect of compounds on PDE4D2 activity (fluorescence polarization kit). Type of assay: biochemical. Particulars: class symbols. In a few lines: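 PDE4D2 (0.068 ng/well final) pre-incubated 15 min at room temperature with serially diluted compound, then […] FAM-cAMP (final) added for 30 min. Binding Agent added for 1 h before fluorescence polarization readout (Ex 485/Em 520 nm, mP). Inhibition derived against positive and negative control wells; IC50 from concentration-inhibition data.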

Assay [3] has as its target T3, hERG potassium ion channel (Homo sapiens, UniProt Q12809).
T3 construct: expressed in transfected cells
Description: Test for hERG potassium ion channel (manual patch-clamp, CHO cells). Type of assay: cell-based. Particulars: CHO cells stably expressing hERG, whole cell patch-clamp; read-out: IC50, inhibition of hERG potassium channel current. From the text: Experimental Platform: Electrophysiological Manual Patch-Clamp System
Cell line: Chinese hamster ovary (CHO) cell line stably expressing hERG potassium ion channel
Experimental method: CHO (Chinese Hamster Ovary) cells stably expressing hERG potassium channel were subjected to a whole cell patch-clamp technique to record the hERG potassium channel current at room temperature. The glass microelectrode was made of a glass electrode blank (BF150-86-10, Sutter) by a puller. The tip resistance after filling the liquid in the electrode was about 2-5 MQ. The glass microelectrode can be connected to the patch-clamp amplifier by inserting the glass microelectrode into an amplifier probe. The clamping voltage and data recording were controlled and recorded by the pClamp 10 software through a computer. The sampling frequency was 10 kHz, and the filtering frequency was 2 kHz. After the whole cell records were obtained, the cells were clamped at −80 mV, and the step voltage that induced the hERG potassium current (IhERG) was depolarized from −80 mV to +20 mV for 2 s, then repolarized to −50 mV, and returned to −80 mV after 1 s. This voltage stimulation was given every 10 s, and the administration process was started after the hERG potassium current was confirmed to be stable (at least 1 minute). The compound was administered for at least 1 minute at each test concentration, and at least 2 cells (n: 2) were tested at each concentration.
Data processing: Data analysis processing was carried out by using pClamp 10, GraphPad Prism 5, and Excel software. The degree of inhibition on the hERG potassium current (peak value of hERG tail current induced at −50 mV) at different compound concentrations was calculated by the following formula:
[formula] • where Inhibition % represents the percentage inhibition of the compound on the hERG potassium current, and I and Io represent the amplitude of the hERG potassium current after and before administration, respectively.
Compound IC50 was calculated using GraphPad Prism 5 software by fitting according to the following equation: […]
In general terms: hERG is a cardiac potassium channel; its block is linked to QT prolongation.

T1 sequence (Q07343 whole entry): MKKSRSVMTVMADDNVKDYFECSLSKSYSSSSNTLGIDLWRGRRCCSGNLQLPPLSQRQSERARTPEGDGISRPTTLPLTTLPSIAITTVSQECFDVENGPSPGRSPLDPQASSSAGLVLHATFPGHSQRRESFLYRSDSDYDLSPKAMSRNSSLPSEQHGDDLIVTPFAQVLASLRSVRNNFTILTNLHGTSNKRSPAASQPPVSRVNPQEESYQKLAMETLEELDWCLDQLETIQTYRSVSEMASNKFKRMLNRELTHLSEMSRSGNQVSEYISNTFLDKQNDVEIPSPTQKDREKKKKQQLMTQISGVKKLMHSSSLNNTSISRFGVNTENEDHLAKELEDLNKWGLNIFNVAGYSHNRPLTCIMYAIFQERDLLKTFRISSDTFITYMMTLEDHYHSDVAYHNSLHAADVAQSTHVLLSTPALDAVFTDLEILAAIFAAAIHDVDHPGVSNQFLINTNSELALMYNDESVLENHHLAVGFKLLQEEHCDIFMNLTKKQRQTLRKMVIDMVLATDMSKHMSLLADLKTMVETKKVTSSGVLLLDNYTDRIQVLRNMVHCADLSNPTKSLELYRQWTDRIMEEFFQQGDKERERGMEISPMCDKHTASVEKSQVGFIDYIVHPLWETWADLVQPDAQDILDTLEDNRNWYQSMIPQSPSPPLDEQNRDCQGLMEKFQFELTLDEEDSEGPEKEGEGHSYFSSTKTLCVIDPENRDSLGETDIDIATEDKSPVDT
T3 sequence (Q12809 whole entry): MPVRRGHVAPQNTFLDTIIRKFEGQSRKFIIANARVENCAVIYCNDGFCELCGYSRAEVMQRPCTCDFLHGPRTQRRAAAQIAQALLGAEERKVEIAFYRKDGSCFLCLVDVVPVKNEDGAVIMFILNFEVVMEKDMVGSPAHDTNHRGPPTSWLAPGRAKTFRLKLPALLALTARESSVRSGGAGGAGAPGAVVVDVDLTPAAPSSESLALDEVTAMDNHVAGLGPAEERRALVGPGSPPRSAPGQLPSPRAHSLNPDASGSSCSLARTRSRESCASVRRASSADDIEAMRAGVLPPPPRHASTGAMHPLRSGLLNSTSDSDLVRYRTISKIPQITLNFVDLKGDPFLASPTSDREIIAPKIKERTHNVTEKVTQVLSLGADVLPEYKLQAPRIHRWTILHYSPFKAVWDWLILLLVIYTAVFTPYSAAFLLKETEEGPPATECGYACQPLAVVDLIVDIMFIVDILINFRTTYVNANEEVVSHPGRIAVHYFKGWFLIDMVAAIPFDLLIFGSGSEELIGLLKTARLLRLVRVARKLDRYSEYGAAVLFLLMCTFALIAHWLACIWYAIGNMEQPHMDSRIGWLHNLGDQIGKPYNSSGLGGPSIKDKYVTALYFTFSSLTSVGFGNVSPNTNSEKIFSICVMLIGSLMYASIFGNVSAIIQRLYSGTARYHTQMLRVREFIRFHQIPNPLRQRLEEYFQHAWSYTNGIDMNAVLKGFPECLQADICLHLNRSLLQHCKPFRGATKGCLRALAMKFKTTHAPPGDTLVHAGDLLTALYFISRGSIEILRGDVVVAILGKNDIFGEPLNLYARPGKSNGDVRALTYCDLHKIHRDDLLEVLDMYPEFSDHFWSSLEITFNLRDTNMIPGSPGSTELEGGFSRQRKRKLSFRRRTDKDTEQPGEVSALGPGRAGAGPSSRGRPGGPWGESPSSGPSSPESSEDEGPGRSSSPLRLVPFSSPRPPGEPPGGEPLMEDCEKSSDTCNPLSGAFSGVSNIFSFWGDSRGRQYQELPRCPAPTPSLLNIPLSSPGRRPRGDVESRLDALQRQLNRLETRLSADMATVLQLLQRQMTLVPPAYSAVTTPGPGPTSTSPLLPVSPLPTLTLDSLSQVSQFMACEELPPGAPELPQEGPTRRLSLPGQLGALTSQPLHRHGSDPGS
T2 sequence (Q08499 303-809): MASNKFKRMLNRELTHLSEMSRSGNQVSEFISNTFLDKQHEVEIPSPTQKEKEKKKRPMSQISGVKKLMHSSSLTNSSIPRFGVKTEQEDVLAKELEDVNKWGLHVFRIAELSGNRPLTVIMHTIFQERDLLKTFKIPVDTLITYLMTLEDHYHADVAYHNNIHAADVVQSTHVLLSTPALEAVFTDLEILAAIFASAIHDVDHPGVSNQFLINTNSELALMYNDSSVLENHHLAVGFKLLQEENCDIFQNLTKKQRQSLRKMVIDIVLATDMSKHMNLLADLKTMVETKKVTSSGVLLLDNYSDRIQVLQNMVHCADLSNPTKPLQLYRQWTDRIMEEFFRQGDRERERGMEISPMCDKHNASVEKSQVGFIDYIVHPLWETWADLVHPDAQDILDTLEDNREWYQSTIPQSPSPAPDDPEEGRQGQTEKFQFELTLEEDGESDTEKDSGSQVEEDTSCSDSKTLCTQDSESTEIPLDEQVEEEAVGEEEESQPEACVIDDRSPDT

A word on the pIC50: it is the IC50 on a negative log10 scale, so that one unit is a factor of ten. As to `[O-][S@+]1CCc2nc(N3C[C@H]4CN(c5ccc6c(c5)CC6)C[C@H]4C3)nc(NC3(CO)CCC3)c21` [Compound 31], the pIC50 in assay [1] is more than 8.00; in assay [2] it was more than 8.00; in assay [3], 4.91.
As for `C#Cc1cnc(C2=CCN(c3nc4c(c(NC5(CO)CCC5)n3)[S+]([O-])CC4)CC2)nc1` (stereo not drawn) [Compound 37], the negative-log IC50 (pIC50) in assay [1] is more than 8.00; in assay [2], more than 8.00; in assay [3], 4.88.
